Laboratory results as given in patent publication US9326516B2, “Molecules having certain pesticidal utilities, and intermediates, compositions, and processes related thereto” (Dow AgroSciences LLC, priority 2014, dated 2016).

What was measured:
Format in all cases: in vivo
[1] = test system: Green Peach Aphid (Myzus persicae, MYZUPE); assay: Bioassay on Green Peach Aphid (GPA), foliar spray on cabbage seedlings; details: 72 h, 200 ppm spray on infested cabbage seedlings, graded after three days, Abbott corrected % control, read-out: GPA % Control (or Mortality) rating
Protocol: Certain molecules disclosed in this document were tested against GPA using procedures described in the following example. In the reporting of the results, the “GPA Rating Table” was used (See Table Section).
Cabbage seedlings grown in 3-inch pots, with 2-3 small (3-5 cm) true leaves, were used as test substrate. The seedlings were infested with 20-50 GPA (wingless adult and nymph stages) one day prior to chemical application. Four pots with individual seedlings were used for each treatment. Test compounds (2 mg) were dissolved in 2 mL of acetone/methanol (1:1) solvent, forming stock solutions of 1000 ppm test compound. The stock solutions were diluted 5× with 0.025% Tween 20 in water to obtain the solution at 200 ppm test compound. A hand-held aspirator-type sprayer was used for spraying a solution to both sides of […] leaves until runoff. Reference plants (solvent check) were sprayed with the diluent only containing 20% by volume of acetone/methanol (1:1) solvent. Treated plants were held in a holding room for three days at approximately 25° C. and ambient relative humidity (RH) prior to grading. Evaluation was conducted by counting the number of live aphids per plant under a microscope. Percent Control was measured by using Abbott's correction formula (W. S. Abbott, “A Method of Computing the Effectiveness of an Insecticide” J. Econ. Entomol. 18 (1925), pp. 265-267) as follows. Corrected % Control=100*(X−Y)/X where X=No. of live aphids on solvent check plants and Y=No. of live aphids on treated plants

[2] = test system: Yellow Fever Mosquito (Aedes aegypti, AEDSAE); details: about 1 day-old larvae, master plate 4000 ppm in DMSO diluted, room temperature, scored after 3 days on mortality
Protocol: Certain molecules disclosed in this document were tested against YFM using procedures described in the following paragraph. In the reporting of the results, the “YFM Rating Table” was used (See Table Section).
Master plates containing 400 μg of a molecule dissolved in 100 μL of dimethyl sulfoxide (DMSO) (equivalent to a 4000 ppm solution) are used. A master plate of assembled molecules contains 15 μL per well. To this plate, 135 μL of a 90:10 water:acetone mixture is added to each well. A robot (Biomek® NXP Laboratory Automation Workstation) is programmed to dispense 15 μL aspirations from the master plate into an empty 96-well shallow plate (“daughter” plate). There are 6 reps (“daughter” plates) created per master. The created daughter plates are then immediately infested with YFM larvae.
The day before plates are to be treated, mosquito eggs are placed in Millipore water containing liver powder to begin hatching (4 g. into 400 mL). After the daughter plates are created using the robot, they are infested with 220 μL of the liver powder/larval mosquito mixture (about 1 day-old larvae). After plates are infested with mosquito larvae, a non-evaporative lid is used to cover the plate to reduce drying. Plates are held at room temperature for 3 days prior to grading. After 3 days, each well is observed and scored based on mortality.

[3] = test system: Beet Armyworm (Spodoptera exigua, LAPHEG); assay: Bioassay on Beet Armyworm (BAW), 128-well diet tray assay; details: 168 h, 50 μg/cm^2 on artificial diet, second instar BAW larvae, 25° C., five to seven days, average of eight wells, read-out: BAW % Control (or Mortality) rating
Protocol: (§1) Certain molecules disclosed in this document were tested against BAW and CEW using procedures described in the following examples. In the reporting of the results, the “BAW & CL Rating Table” was used (See Table Section).
Bioassays on BAW were conducted using a 128-well diet tray assay. one to five second instar BAW larvae were placed in each well (3 mL) of the diet tray that had been previously filled with 1 mL of artificial diet to which 50 μg/cm^2 of the test compound (dissolved in 50 μL of 90:10 acetone-water mixture) had been applied (to each of eight wells) and then allowed to dry. Trays were covered with a clear self-adhesive cover and held at 25° C., 14:10 light-dark for five to seven days. Percent mortality was recorded for the larvae in each well; activity in the eight wells was then averaged. The results are indicated in the table entitled “Table ABC: Biological Results” (See Table Section).

[4] = test system: Cabbage Looper (Trichoplusia ni, TRIPNI); assay: Bioassay on Cabbage Looper (CL), 128-well diet tray assay; details: 168 h, 50 μg/cm^2 on artificial diet, second instar CL larvae, 25° C., five to seven days, average of eight wells, read-out: CL % Control (or Mortality) rating
Protocol: as §1
Bioassays on CL were conducted using a 128-well diet tray assay, one to five second instar CL larvae were placed in each well (3 mL) of the diet tray that had been previously filled with 1 mL of artificial diet to which 50 μg/cm^2 of the test compound (dissolved in 50 μL of 90:10 acetone-water mixture) had been applied (to each of eight wells) and then allowed to dry. Trays were covered with a clear self-adhesive cover and held at 25° C., 14:10 light-dark for five to seven days. Percent mortality was recorded for the larvae in each well; activity in the eight wells was then averaged. The results are indicated in the table entitled “Table ABC: Biological Results” (See Table Section).

With `FC(F)(F)Oc1ccc(-n2cnc(-c3ccc(NC4=N[C@H](c5ccccc5)CO4)cc3)n2)cc1` [Compound F1, (R)-4-Phenyl-N-(4-(1-(4-(trifluoromethoxy)phenyl)-1H-1,2,4-triazol-3-yl)phenyl)-4,5-dihydrooxazol-2-amine] the mortality at 200 ppm [1] was 80 to 100%, the “YFM % Control (or Mortality) rating” value [2] was “B (More than 0-Less than 80)” and the mortality at 50 µg/cm2 [3] was 50 to 100%. It also gave a mortality at 50 µg/cm2 [4] of 50 to 100%.

`FC(F)(F)Oc1ccc(-n2cnc(-c3ccc(NC4=NC(c5ccc(Br)cc5)CS4)cc3)n2)cc1` (stereo not shown) [Compound F26, 4-(4-Bromophenyl)-N-(4-(1-(4-(trifluoromethoxy)phenyl)-1H-1,2,4-triazol-3-yl)phenyl)-4,5-dihydrothiazol-2-amine] gave a mortality at 200 ppm [1] of 0%, a mortality at 50 µg/cm2 [3] of 0% and a mortality at 50 µg/cm2 [4] of 0 to 50%.

Work on `FC(F)(F)Oc1ccc(-n2cnc(-c3ccc(NC4=NC(c5ccc(C(F)(F)F)cc5)CS4)cc3)n2)cc1` (stereo not shown) [Compound F27, N-(4-(1-(4-(Trifluoromethoxy)phenyl)-1H-1,2,4-triazol-3-yl)phenyl)-4-(4-(trifluoromethyl)phenyl)-4,5-dihydrothiazol-2-amine] yielded a mortality at 200 ppm [1] of 0%, a mortality at 50 µg/cm2 [3] of 0% and a mortality at 50 µg/cm2 [4] of 50 to 100%.

Work on `FC(F)(F)Oc1ccc(C2CSC(Nc3ccc(-c4ncn(-c5ccc(OC(F)(F)F)cc5)n4)cc3)=N2)cc1` (stereo not shown) [Compound F28, 4-(4-(Trifluoromethoxy)phenyl)-N-(4-(1-(4-(trifluoromethoxy)phenyl)-1H-1,2,4-triazol-3-yl)phenyl)-4,5-dihydrothiazol-2-amine] yielded a mortality at 200 ppm [1] of 0%, a mortality at 50 µg/cm2 [3] of 0 to 50% and a mortality at 50 µg/cm2 [4] of 0%.

`FC(F)(F)Oc1ccc(-n2cnc(-c3ccc(NC4=NC(c5cccc(Cl)c5)CS4)cc3)n2)cc1` (stereo not shown) [Compound F29, 4-(3-Chlorophenyl)-N-(4-(1-(4-(trifluoromethoxy)phenyl)-1H-1,2,4-triazol-3-yl)phenyl)-4,5-dihydrothiazol-2-amine] showed a mortality at 200 ppm [1] of 0%, a mortality at 50 µg/cm2 [3] of 50 to 100% and a mortality at 50 µg/cm2 [4] of 50 to 100%.

`FC(F)(F)Oc1ccc(-n2cnc(-c3ccc(NC4=NC(c5ccccc5Cl)CS4)cc3)n2)cc1` (stereo not shown) [Compound F30, 4-(2-Chlorophenyl)-N-(4-(1-(4-(trifluoromethoxy)phenyl)-1H-1,2,4-triazol-3-yl)phenyl)-4,5-dihydrothiazol-2-amine] was tested, and the mortality at 200 ppm [1] was 0%, the mortality at 50 µg/cm2 [3] was 50 to 100% and the mortality at 50 µg/cm2 [4] was 50 to 100%.

Work on `Cc1cc(C2CSC(Nc3ccc(-c4ncn(-c5ccc(OC(F)(F)F)cc5)n4)cc3)=N2)ccc1Cl` (stereo not shown) [Compound F31, 4-(4-Chloro-3-methylphenyl)-N-(4-(1-(4-(trifluoromethoxy)phenyl)-1H-1,2,4-triazol-3-yl)phenyl)-4,5-dihydrothiazol-2-amine] yielded a mortality at 200 ppm [1] of 0%, a mortality at 50 µg/cm2 [3] of 50 to 100% and a mortality at 50 µg/cm2 [4] of 50 to 100%.

With `COc1ccc(C2CSC(Nc3ccc(-c4ncn(-c5ccc(C(F)(F)F)cc5)n4)cc3)=N2)cc1` (stereo not shown) [Compound F32, 4-(4-Methoxyphenyl)-N-(4-(1-(4-(trifluoromethyl)phenyl)-1H-1,2,4-triazol-3-yl)phenyl)-4,5-dihydrothiazol-2-amine] the mortality at 200 ppm [1] was 0%, the mortality at 50 µg/cm2 [3] was 0% and the mortality at 50 µg/cm2 [4] was 0%.

Compound `Cc1ccc(C2CSC(Nc3ccc(-c4ncn(-c5ccc(C(F)(F)F)cc5)n4)cc3)=N2)cc1` (stereo not shown) [Compound F33, 4-(p-Tolyl)-N-(4-(1-(4-(trifluoromethyl)phenyl)-1H-1,2,4-triazol-3-yl)phenyl)-4,5-dihydrothiazol-2-amine] has a mortality at 200 ppm [1] of 0 to 80%, a mortality at 50 µg/cm2 [3] of 0% and a mortality at 50 µg/cm2 [4] of 0%.

`FC(F)(F)c1ccc(-n2cnc(-c3ccc(NC4=NC(c5ccccc5)CS4)cc3)n2)cc1` (stereo not shown) [Compound F34, 4-Phenyl-N-(4-(1-(4-(trifluoromethyl)phenyl)-1H-1,2,4-triazol-3-yl)phenyl)-4,5-dihydrothiazol-2-amine] gave a mortality at 200 ppm [1] of 0%, a mortality at 50 µg/cm2 [3] of 50 to 100% and a mortality at 50 µg/cm2 [4] of 50 to 100%.

`Fc1ccc(C2CSC(Nc3ccc(-c4ncn(-c5ccc(C(F)(F)F)cc5)n4)cc3)=N2)cc1` (stereo not shown) [Compound F35, 4-(4-Fluorophenyl)-N-(4-(1-(4-(trifluoromethyl)phenyl)-1H-1,2,4-triazol-3-yl)phenyl)-4,5-dihydrothiazol-2-amine] was tested, and the mortality at 200 ppm [1] was 0%, the mortality at 50 µg/cm2 [3] was 0% and the mortality at 50 µg/cm2 [4] was 50 to 100%.

`FC(F)(F)c1ccc(-n2cnc(-c3ccc(NC4=NC(c5ccc(Cl)cc5)CS4)cc3)n2)cc1` (stereo not shown) [Compound F36, 4-(4-Chlorophenyl)-N-(4-(1-(4-(trifluoromethyl)phenyl)-1H-1,2,4-triazol-3-yl)phenyl)-4,5-dihydrothiazol-2-amine] gave a mortality at 200 ppm [1] of 0%, a mortality at 50 µg/cm2 [3] of 0% and a mortality at 50 µg/cm2 [4] of 50 to 100%.

Compound `FC(F)(F)c1ccc(-n2cnc(-c3ccc(NC4=NC(c5ccc(Br)cc5)CS4)cc3)n2)cc1` (stereo not shown) [Compound F37] has a mortality at 200 ppm [1] of 0%, a mortality at 50 µg/cm2 [3] of 0% and a mortality at 50 µg/cm2 [4] of 0%.

Work on `FC(F)(F)c1ccc(C2CSC(Nc3ccc(-c4ncn(-c5ccc(C(F)(F)F)cc5)n4)cc3)=N2)cc1` (stereo not shown) [Compound F38, 4-(4-(Trifluoromethyl)phenyl)-N-(4-(1-(4-(trifluoromethyl)phenyl)-1H-1,2,4-triazol-3-yl)phenyl)-4,5-dihydrothiazol-2-amine] yielded a mortality at 200 ppm [1] of 0%, a mortality at 50 µg/cm2 [3] of 0 to 50% and a mortality at 50 µg/cm2 [4] of 50 to 100%.

In the case of `FC(F)(F)Oc1ccc(C2CSC(Nc3ccc(-c4ncn(-c5ccc(C(F)(F)F)cc5)n4)cc3)=N2)cc1` (stereo not shown) [Compound F39, 4-(4-(Trifluoromethoxy)phenyl)-N-(4-(1-(4-(trifluoromethyl)phenyl)-1H-1,2,4-triazol-3-yl)phenyl)-4,5-dihydrothiazol-2-amine], the mortality at 200 ppm [1] is reported as 0%, the mortality at 50 µg/cm2 [3] is reported as 0% and the mortality at 50 µg/cm2 [4] is reported as 0%.

In the case of `FC(F)(F)c1ccc(-n2cnc(-c3ccc(NC4=NC(c5cccc(Cl)c5)CS4)cc3)n2)cc1` (stereo not shown) [Compound F40, 4-(3-Chlorophenyl)-N-(4-(1-(4-(trifluoromethyl)phenyl)-1H-1,2,4-triazol-3-yl)phenyl)-4,5-dihydrothiazol-2-amine], the mortality at 200 ppm [1] is reported as 0 to 80%, the mortality at 50 µg/cm2 [3] is reported as 50 to 100% and the mortality at 50 µg/cm2 [4] is reported as 50 to 100%.

`FC(F)(F)c1ccc(-n2cnc(-c3ccc(NC4=NC(c5ccccc5Cl)CS4)cc3)n2)cc1` (stereo not shown) [Compound F41, 4-(2-Chlorophenyl)-N-(4-(1-(4-(trifluoromethyl)phenyl)-1H-1,2,4-triazol-3-yl)phenyl)-4,5-dihydrothiazol-2-amine] gave a mortality at 200 ppm [1] of 0%, a mortality at 50 µg/cm2 [3] of 50 to 100% and a mortality at 50 µg/cm2 [4] of 50 to 100%.

Work on `Cc1cc(C2CSC(Nc3ccc(-c4ncn(-c5ccc(C(F)(F)F)cc5)n4)cc3)=N2)ccc1Cl` (stereo not shown) [Compound F42, 4-(4-Chloro-3-methylphenyl)-N-(4-(1-(4-(trifluoromethyl)phenyl)-1H-1,2,4-triazol-3-yl)phenyl)-4,5-dihydrothiazol-2-amine] yielded a mortality at 200 ppm [1] of 0%, a mortality at 50 µg/cm2 [3] of 0% and a mortality at 50 µg/cm2 [4] of 0%.
